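Five concentrations, 48 hours, 96-well plates. At the GI50, growth is halved. TGI: concentration producing complete growth inhibition.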
How the values were obtained:
Assay in all cases: NCI-60 cell line screen, 48 h
[1] = tested on: 786-0 renal
[2] = tested on: A498 renal
[3] = tested on: A549 NSCLC
[4] = tested on: ACHN renal
[5] = tested on: BT-549 breast
[6] = tested on: CAKI-1 renal
[7] = tested on: CCRF-CEM leukemia
[8] = tested on: COLO 205 colon
[9] = tested on: DU-145 prostate
[10] = tested on: EKVX NSCLC
[11] = tested on: HCC-2998 colon
[12] = tested on: HCT-116 colon
[13] = tested on: HCT-15 colon
[14] = tested on: HL-60(TB) leukemia
[15] = tested on: HOP-62 NSCLC
[16] = tested on: HOP-92 NSCLC
[17] = tested on: HS 578T breast
[18] = tested on: HT29 colon
[19] = tested on: IGROV1 ovarian
[20] = tested on: K-562 leukemia
[21] = tested on: KM12 colon
[22] = tested on: LOX IMVI melanoma
[23] = tested on: M14 melanoma
[24] = tested on: MALME-3M melanoma
[25] = tested on: MCF7 breast
[26] = tested on: MDA-MB-231 breast
[27] = tested on: MDA-MB-435
[28] = tested on: MOLT-4 leukemia
[29] = tested on: NCI-H226 lung
[30] = tested on: NCI-H23 lung
[31] = tested on: NCI-H460 lung
[32] = tested on: NCI-H522 lung
[33] = tested on: NCI/ADR-RES ovarian
[34] = tested on: OVCAR-3 ovarian
[35] = tested on: OVCAR-4 ovarian
[36] = tested on: OVCAR-5 ovarian
[37] = tested on: OVCAR-8 ovarian
[38] = tested on: PC-3 prostate
[39] = tested on: RPMI-8226 leukemia
[40] = tested on: RXF 393 renal
[41] = tested on: SF-268 CNS
[42] = tested on: SF-539 CNS
[43] = tested on: SK-MEL-2 melanoma
[44] = tested on: SK-MEL-28 melanoma
[45] = tested on: SK-MEL-5 melanoma
[46] = tested on: SK-OV-3 ovarian
[47] = tested on: SN12C renal
[48] = tested on: SNB-19 CNS
[49] = tested on: SNB-75 CNS
[50] = tested on: SW-620 colon
[51] = tested on: T-47D breast
[52] = tested on: TK-10 renal
[53] = tested on: U251 CNS
[54] = tested on: UACC-257 melanoma
[55] = tested on: UACC-62 melanoma
[56] = tested on: UO-31 renal

O=c1c2c3c(sc2n2c(CCl)nnc2n1Cc1ccccc1)CCCC3
GI50 [1]: 2.01 µM
TGI [1]: 3.75 µM
GI50 [2]: 9.17 µM
TGI [2]: 23.1 µM
GI50 [3]: 2.79 µM
TGI [3]: 7.3 µM
GI50 [4]: 1.6 µM
TGI [4]: 2.96 µM
GI50 [5]: 2.41 µM
TGI [5]: 9.44 µM
GI50 [6]: 2.9 µM
TGI [6]: 7.79 µM
GI50 [7]: 0.434 µM
GI50 [8]: 1.94 µM
TGI [8]: 4.05 µM
GI50 [9]: 2.45 µM
TGI [9]: 6.18 µM
GI50 [10]: 7.96 µM
TGI [10]: 27.9 µM
GI50 [11]: 1.74 µM
TGI [11]: 3.39 µM
GI50 [12]: 1.51 µM
TGI [12]: 3.13 µM
GI50 [13]: 1.86 µM
TGI [13]: 5.34 µM
GI50 [14]: 2.16 µM
TGI [14]: > 19.8 µM
GI50 [15]: 3.55 µM
TGI [15]: 7.87 µM
GI50 [16]: 1.83 µM
TGI [16]: 3.8 µM
GI50 [17]: 1.92 µM
TGI [17]: 5.9 µM
GI50 [18]: 1.95 µM
TGI [18]: 4.05 µM
GI50 [19]: 0.0645 µM
TGI [19]: 1.53 µM
GI50 [20]: 2.33 µM
TGI [20]: 5.39 µM
GI50 [21]: 2.39 µM
TGI [21]: 6.05 µM
GI50 [22]: 0.284 µM
TGI [22]: 1.32 µM
GI50 [23]: 1.79 µM
TGI [23]: 5.43 µM
GI50 [24]: 3.48 µM
TGI [24]: 10.7 µM
GI50 [25]: 1.75 µM
TGI [25]: 4.54 µM
GI50 [26]: 2.22 µM
TGI [26]: 5.23 µM
GI50 [27]: 3.4 µM
TGI [27]: 11 µM
GI50 [28]: 3.62 µM
TGI [28]: 17.1 µM
GI50 [29]: 1.74 µM
TGI [29]: 4.37 µM
GI50 [30]: 2.27 µM
TGI [30]: 8.43 µM
GI50 [31]: 2.58 µM
TGI [31]: 7.98 µM
GI50 [32]: 1.89 µM
TGI [32]: 4.17 µM
GI50 [33]: 3.84 µM
TGI [33]: > 51.1 µM
GI50 [34]: 1.76 µM
TGI [34]: 3.21 µM
GI50 [35]: 2.79 µM
TGI [35]: 7.74 µM
GI50 [36]: 2.34 µM
TGI [36]: 5.23 µM
GI50 [37]: 2.28 µM
TGI [37]: 6.19 µM
GI50 [38]: 1.85 µM
TGI [38]: 4.01 µM
GI50 [39]: 1.97 µM
TGI [39]: 5.05 µM
GI50 [40]: 1.98 µM
TGI [40]: 4.17 µM
GI50 [41]: 1.83 µM
TGI [41]: 3.72 µM
GI50 [42]: 3.24 µM
TGI [42]: 10.1 µM
GI50 [43]: 1.53 µM
TGI [43]: 2.98 µM
GI50 [44]: 1.7 µM
TGI [44]: 3.16 µM
GI50 [45]: 2.94 µM
TGI [45]: 7.62 µM
GI50 [46]: 13.4 µM
TGI [46]: 48.8 µM
GI50 [47]: 1.62 µM
TGI [47]: 3.86 µM
GI50 [48]: 15.8 µM
TGI [48]: 32.1 µM
GI50 [49]: 4.51 µM
TGI [49]: 9.03 µM
GI50 [50]: 1.76 µM
TGI [50]: 3.51 µM
GI50 [51]: 2.5 µM
TGI [51]: 6.5 µM
GI50 [52]: 5.25 µM
TGI [52]: 10.7 µM
GI50 [53]: 1.6 µM
TGI [53]: 3.03 µM
GI50 [54]: 2.12 µM
TGI [54]: 4.29 µM
GI50 [55]: 1.99 µM
TGI [55]: 5.64 µM
GI50 [56]: 1.51 µM
TGI [56]: 2.88 µM

— PubChem BioAssay (NCI)
